Assays:
female NOD mice = test: Long-term diabetes incidence, insulitis and βCA reactive T cells after GAD tolerization; assay type: in vivo
Procedure: 1. In these experiments female NOD mice were intravenously injected at 3 weeks of age with 50 μg GAD, μ-galactosidase, mycobacterial hsp65 (m-hsp) or 0.1 μg of the immunodominant hsp peptide (hsp-p), in PBS. At 12 weeks of age, mice were examined for insulitis and autoantigen reactive T-cells. At this age both indications are established in untreated NOD mice. Pancreatic tissue sections were stained by immunoperoxidase techniques for insulin and were counterstained with hematoxylin. Insulitis was scored in a blinded manner by examining 54 to 87 islets on 5 interrupted tissue sections from each pancreas. Proliferative splenic T-cell responses induced by various antigens were performed as described above in Example 4. Data in Table 8 are expressed as the average [^3 H]-thymidine label (cpm) incorporated in triplicate cultures.
Five GAD treated mice were sacrificed at 30 weeks of age.

[1] = tested on: spleen cells of 6-9 week old NOD mice; test: IFNγ ELISA and ELISA spot of spleen cells challenged with antigen; assay type: cell-based
Procedure: In one series of experiments γ interferon (IFNγ) was measured by ELISA in culture supernatants (CSN) of spleen cells of 6-9 week old mice after challenge with GAD or control antigens HEL and MBP. Additionally, the frequency of antigen specific, IFNγ-producing cells was determined by an ELISA spot technique (T. Taguchi, et al., J. Immunol., 145:68-77, 1990). Frequency of antigen-induced, spot forming cells (SFC) among 10^3 spleen cells is represented in FIG. 9(a). Values are the mean+SEM from 5 individual female NOD mice, each tested in triplicate cultures with or without antigen. Results from a single experiment are shown. These are representative of 3 separate experiments.
In performing these experiments, freshly isolated spleen cells were cultured with or without antigen as described in Example 4. CSN were taken after 48 h and the concentration of IFNγ was determined by ELISA (Macy, et al., FASEB J., 3003-3009, 1988). IFNγ specific monoclonal antibody (mAb) R4-6A2 (Pharmingen) was used as the capturing reagent and biotinylated mAb XMG 1.2 (Pharmingen, also specific for IFNγ) was used in conjunction with streptavidin-alkaline phosphatase (Zymed) and […] for detection of bound lymphokine. […] Spots were counted visually and the frequency of antigen specific cells was determined from the difference between the number of spots seen with and without antigen.

[2] = five treated mice sacrificed at 30 weeks

GAD: human GAD65 purified from recombinant bacteria on the basis of a hexahistidine tag
insulitis at 30 weeks of age (female NOD mice; [2]): four mice were completely free of insulitis | βCA reactive T cells at 30 weeks of age (female NOD mice; [2]): free of detectable βCA reactive T cells | glucose levels of treated mice (female NOD mice; n=17, presently 37 weeks old): normal glucose levels | IFNγ in culture supernatants after antigen challenge ([1]; 48 h, ELISA): high concentrations of IFNγ | frequency of antigen-reactive (IFNγ spot forming) T-cells in the spleen ([1]; ELISA spot): 90-291 cells per 10^5 cells

Source: patent publication US5998366A, “Method for ameliorating glutamic acid decarboxylase associated autoimmune disorders” (The Regents of the University of California, priority 1997, dated 1999)
